Reference: article PMC6524640 (Biochimica et biophysica acta. Biomembranes, 2019)
No end group written: not given here.

Target: Ca2+/CaM (Homo sapiens, UniProt P0DP23)
Assay type: binding

Row | Kd [µM] | KD from titration to 15N-labeled Ca2+/CaM (result in words) (nanodisc free solution, same conditions as the SFWT peptide) | Substance
1 | 750 | – | HFGKTGAASDQR [LFRA]
2 | 0.27 | – | HAGKTGSSGPLQ [SFFA]
3 | – | did not reach saturation | HFGKpTGSSGPLQ [pSFWT]
